# Test results taken from patent publication US9290453B2 (Merck Sharp & Dohme Corp., priority 2010, dated 2016).
# Biological target: T1, hCRTH2 (Homo sapiens, UniProt Q9Y5Y4)
# T1 construct: expressed in transfected cells; host or cells: HEK (human embryonic kidney) cells expressing hCRTH2
# T1 sequence (Q9Y5Y4 1-395): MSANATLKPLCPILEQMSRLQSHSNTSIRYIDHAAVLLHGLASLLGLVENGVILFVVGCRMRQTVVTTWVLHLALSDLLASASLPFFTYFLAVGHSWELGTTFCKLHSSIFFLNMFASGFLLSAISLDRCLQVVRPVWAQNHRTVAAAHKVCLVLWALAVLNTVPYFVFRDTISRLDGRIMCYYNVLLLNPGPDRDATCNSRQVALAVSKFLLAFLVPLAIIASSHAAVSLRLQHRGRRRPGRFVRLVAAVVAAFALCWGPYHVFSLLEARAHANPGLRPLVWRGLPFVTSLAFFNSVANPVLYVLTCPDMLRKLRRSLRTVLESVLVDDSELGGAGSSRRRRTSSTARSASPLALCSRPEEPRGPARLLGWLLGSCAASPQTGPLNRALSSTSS
# Experiment: Radioligand Binding Assay A ([3H]PGD2 filtration binding, HEK-hCRTH2 membranes)
# Settings: Table A, rated A-D
# Method in brief: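 Membranes from HEK-hCRTH2 cells (8-20 μg) incubated 60 min at room temperature with 3.0 nM [3H]PGD2 in 50 mM Tris-HCl pH 7.4, 1 mM EDTA, 2 mM MnCl2, 1% Me2SO. Non-specific binding defined with 10 μM PGD2; bound radioactivity counted after filtration.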
row,Ki [nM],Compound
1,20.1 to 200,"C[C@@H](NC(=O)c1cnc2nc(-c3ccc(F)cc3)c(CCCCC(=O)O)cc2c1)c1ccc(F)cc1 [Compound 6D, 2-(4-fluorophenyl)-6-[[[1(R)-(4-fluorophenyl)ethyl]amino]carbonyl]-1,8-naphthyridine-3-pentanoic acid]"
2,2.1 to 20,"O=C(O)CCCCc1cc2cc(C(=O)N[C@@H]3CCCc4cc(Cl)ccc43)cnc2nc1-c1ccc(F)cc1 [Compound 6G, 6-[[(6-chloro-1,2,3,4-tetrahydro-1(R)-naphthalenyl)amino)carbonyl]-2-(4-fluorophenyl)-1,8-naphthyridine-3-pentanoic acid]"
3,2.1 to 20,"O=C(O)CCCCc1cc2cc(C(=O)N[C@@H]3CCc4cc(Cl)ccc43)cnc2nc1-c1ccc(F)cc1 [Compound 6E, 6-[[(5-chloro-2,3-dihydro-1H-inden-1(R)-yl)amino]carbonyl]-2-(4-fluorophenyl)-1,8-naphthyridine-3-pentanoic acid]"
4,2.1 to 20,"O=C(O)CCCCc1cc2cc(C(=O)NCCCN3CCCC3=O)ccc2nc1-c1ccccc1 [Compound 1AA, 6-[[[3-(2-oxo-1-pyrrolidinyl)propyl]amino]carbonyl]-2-phenyl-3-quinolinepentanoic acid]"
5,2.1 to 20,"O=C(O)CCCCc1cc2cc(C(=O)N[C@@H](c3cc(Cl)cc(Cl)c3)C(F)(F)F)cnc2nc1-c1ccc(F)cc1 [Compound 6R, 6-[[[1(S)-(3,5-dichlorophenyl)-2,2,2-trifluoroethyl]amino]carbonyl]-2-(4-fluorophenyl)-1,8-naphthyridine-3-pentanoic acid]"
6,2.1 to 20,"O=C(O)CCCCc1cc2cc(C(=O)N[C@H]3CCc4ccccc43)ccc2nc1-c1ccc(F)cc1 [Compound 5K, 6-[[(2,3-dihydro-1H-inden-1(S)-yl)amino]carbonyl]-2-(4-fluorophenyl)-3-quinolinepentanoic acid]"
7,0.1 to 2,"O=C(O)CCCCc1cc2cc(C(=O)OCc3ccccc3)ccc2nc1-c1ccccc1 [Compound 2D, 2-phenyl-6-[(phenylmethoxy)carbonyl]-3-quinolinepentanoic acid]"
8,2.1 to 20,"O=C(O)CCCCc1cc2cc(C(=O)NCc3ccc(F)cc3)ccc2nc1-c1ccccc1 [Compound 2C, 6-[[[(4-fluorophenyl)methyl]amino]carbonyl]-2-phenyl-3-quinolinepentanoic acid]"
9,20.1 to 200,"C[C@@H](NC(=O)c1cnc2nc(-c3ccc(F)cc3)c(CCCCC(=O)O)cc2c1)c1ccc(Cl)cc1 [Compound 6, 6-[[[1(R)-(4-chlorophenyl)ethyl]amino]carbonyl]-2-(4-fluorophenyl)-1,8-naphthyridine-3-pentanoic acid]"
10,20.1 to 200,"O=C(O)CCCCc1cc2cc(C(=O)N[C@@H]3CCc4ccc(F)cc43)cnc2nc1-c1ccc(F)cc1 [Compound 6F, 6-[[(6-fluoro-2,3-dihydro-1H-inden-1(R)-yl)amino]carbonyl]-2-(4-fluorophenyl)-1,8-naphthyridine-3-pentanoic acid]"
11,2.1 to 20,"O=C(O)CCCCc1nc2cc(C(=O)N3CCC[C@H](c4ccccc4)C3)ccc2cc1-c1ccccc1 [Compound 3K, 3-phenyl-7-[(3(R)-phenyl-1-piperidinyl)carbonyl]-2-quinolinepentanoic acid]"
12,2.1 to 20,"O=C(O)CCCCc1cc2cc(C(=O)N[C@@H]3CCc4ccccc43)ccc2nc1-c1ccccc1 [Compound 1M, 6-[[(2,3-dihydro-1H-inden-1(R)-yl)amino]carbonyl]-2-phenyl-3-quinolinepentanoic acid]"
13,2.1 to 20,"O=C(O)CCCCc1cc2cc(C(=O)NC3Cc4ccccc4C3)ccc2nc1-c1ccccc1 [Compound 1Q, 6-[[(2,3-dihydro-1H-inden-2-yl)amino]carbonyl]-2-phenyl-3-quinolinepentanoic acid]"
14,0.1 to 2,"O=C(O)CCCCc1nc2cc(C(=O)NCc3cccc(Cl)c3)ccc2cc1-c1ccccc1 [Compound 4, 5-(7-(3-chlorobenzylcarbamoyl)-3-phenylquinolin-2-yl)pentanoic acid]"
15,0.1 to 2,"O=C(O)CCCCc1cc2cc(C(=O)N3CCC(c4ccccc4)CC3)ccc2nc1-c1ccccc1 [Compound 1R, 2-phenyl-6-[(4-phenyl-1-piperidinyl)carbonyl]-3-quinolinepentanoic acid]"

# Same assay, conditions: values in text
row,Ki [nM],Compound
1,6.3,"O=C(O)CCCCc1cc2cc(C(=O)N[C@@H]3CCCc4cc(Cl)ccc43)cnc2nc1-c1ccc(F)cc1 [Compound 6G, 6-[[(6-chloro-1,2,3,4-tetrahydro-1(R)-naphthalenyl)amino)carbonyl]-2-(4-fluorophenyl)-1,8-naphthyridine-3-pentanoic acid]"
2,3.8,"O=C(O)CCCCc1cc2cc(C(=O)N[C@@H]3CCc4ccccc43)ccc2nc1-c1ccccc1 [Compound 1M, 6-[[(2,3-dihydro-1H-inden-1(R)-yl)amino]carbonyl]-2-phenyl-3-quinolinepentanoic acid]"
3,1.8,"O=C(O)CCCCc1cc2cc(C(=O)N3CCC(c4ccccc4)CC3)ccc2nc1-c1ccccc1 [Compound 1R, 2-phenyl-6-[(4-phenyl-1-piperidinyl)carbonyl]-3-quinolinepentanoic acid]"

# Biological target: T1, hCRTH2
# Experiment: Radioligand Binding Assay B (scintillation proximity assay, [3H]-PGD2, HEK-hCRTH2 membranes)
# Settings: Radioligand Binding Assay B (SPA), values in text
# Method: Radioligand binding also was performed using scintillation proximity assay (SPA) technology in a similar way as described above in Radioligand Binding Assay A with minor modification. Assays were done at room temperature in 10 mM HEPES pH 7.4, 1 mM EDTA containing 2 mM MnCl2 and 16 nM [^3H]-PGD2 (PerkinElmer, Waltham, Mass.) (164 Ci mmol^−1), in a final volume of 0.05 mL. Competing ligands were diluted in dimethylsulfoxide (Me2SO) and added using very low volumes (50 nL). The reaction was initiated by the addition of a mixture of 3.52 μg of membrane protein prepared from a human embryonic kidney (HEK)-hCRTH2 cell line adhered to 140 ug of wheatgerm agglutinin SPA beads (PerkinElmer). Total and non-specific binding were determined in the absence and the presence of 10 μM of a CRTH2 antagonist, respectively. The reaction was routinely conducted for 60 min at room temperature followed by centrifugation for 5 minutes at 1000 RPM. The radioactivity was measured with a TopCountNXT (PerkinElmer). Results determined using the SPA-based assay were similar to those from the filtration binding assay.
row,Ki [nM],Compound
1,14,"O=C(O)CCCCc1cc2cc(C(=O)N3CCN(c4c(Cl)cncc4Cl)CC3)ccc2nc1-c1ccccc1 [Compound 1AY, 5-(6-(4-(3,5-dichloropyridin-4-yl)piperazine-1-carbonyl)-2-phenylquinolin-3-yl)pentanoic acid]"
2,11.6,"O=C(O)CCCCc1cc2cc(C(=O)N3CCN(c4ccccc4)CC3)ccc2nc1-c1ccc(F)cc1 [Compound 5AF, 5-(2-(4-fluorophenyl)-6-(4-phenylpiperazine-1-carbonyl)quinolin-3-yl)pentanoic acid]"

# Same assay, conditions: Table B, Radioligand Binding Assay B (SPA), rated A-D
row,Ki [nM],Compound
1,20.1 to 200,"O=C(O)CCCCc1cc2cc(C(=O)NCc3ccccc3)ccc2nc1-c1ccc(F)cc1 [Compound 5AN, 5-(6-(benzylcarbamoyl)-2-(4-fluorophenyl)quinolin-3-yl)pentanoic acid]"
2,2.1 to 20,"O=C(O)CCCCc1cc2cc(C(=O)N3CC(c4cccc(F)c4)C3)ccc2nc1-c1ccccc1 [Compound 1AJ, 5-(6-(3-(3-fluorophenyl)azetidine-1-carbonyl)-2-phenylquinolin-3-yl)pentanoic acid]"
3,2.1 to 20,"O=C(O)CCCCc1cc2cc(C(=O)N3CCN(c4ccc(F)cc4)CC3)ccc2nc1-c1ccc(F)cc1 [Compound 5AX, 5-(2-(4-fluorophenyl)-6-(4-(4-fluorophenyl)piperazine-1-carbonyl)quinolin-3-yl)pentanoic acid]"
4,2.1 to 20,"O=C(O)CCCCc1cc2cc(C(=O)N3CC(c4ccccc4)C3)ccc2nc1-c1ccc(Cl)cc1 [Compound 5BK, 5-(2-(4-chlorophenyl)-6-(3-phenylazetidine-1-carbonyl)quinolin-3-yl)pentanoic acid]"
5,2.1 to 20,"COc1ccc(N2CCN(C(=O)c3ccc4nc(-c5ccc(Cl)cc5)c(CCCCC(=O)O)cc4c3)CC2)cc1 [Compound 5BS, 5-(2-(4-chlorophenyl)-6-(4-(4-methoxyphenyl)piperazine-1-carbonyl)quinolin-3-yl)pentanoic acid]"
6,2.1 to 20,"CN(Cc1ccc(F)cc1)C(=O)c1ccc2nc(-c3ccc(F)cc3)c(CCCCC(=O)O)cc2c1 [Compound 5Ai, 5-(6-((4-fluorobenzyl)(methyl)carbamoyl)-2-(4-fluorophenyl)quinolin-3-yl)pentanoic acid]"
7,20.1 to 200,"N#Cc1cccnc1N1CCN(C(=O)c2ccc3nc(-c4ccccc4)c(CCCCC(=O)O)cc3c2)CC1 [Compound 1AX, 5-(6-(4-(3-cyanopyridin-2-yl)piperazine-1-carbonyl)-2-phenylquinolin-3-yl)pentanoic acid]"
8,2.1 to 20,"C[C@@H](NC(=O)c1ccc2nc(-c3ccc(Cl)cc3)c(CCCCC(=O)O)cc2c1)c1ccc(F)cc1 [Compound 5BC, (R)-5-(2-(4-chlorophenyl)-6-((1-(4-fluorophenyl)ethyl)carbamoyl)quinolin-3-yl)pentanoic acid]"
9,2.1 to 20,"O=C(O)CCCCc1cc2cc(C(=O)N3CCN(c4c(Cl)cncc4Cl)CC3)ccc2nc1-c1ccccc1 [Compound 1AY, 5-(6-(4-(3,5-dichloropyridin-4-yl)piperazine-1-carbonyl)-2-phenylquinolin-3-yl)pentanoic acid]"
10,20.1 to 200,"O=C(O)CCCCc1cc2cc(C(=O)N3CCN(c4ccccc4Cl)CC3)ccc2nc1-c1ccc(Cl)cc1 [Compound 5BP, 5-(2-(4-chlorophenyl)-6-(4-(2-chlorophenyl)piperazine-1-carbonyl)quinolin-3-yl)pentanoic acid]"
11,2.1 to 20,"O=C(O)CCCCc1cc2cc(C(=O)N3CCN(c4ccccc4Cl)CC3)ccc2nc1-c1ccc(F)cc1 [Compound 5AS, 5-(6-(4-(2-chlorophenyl)piperazine-1-carbonyl)-2-(4-fluorophenyl)quinolin-3-yl)pentanoic acid]"
12,2.1 to 20,"Cc1ccc(N2CCN(C(=O)c3ccc4nc(-c5ccc(F)cc5)c(CCCCC(=O)O)cc4c3)CC2)cc1 [Compound 5AW, 5-(2-(4-fluorophenyl)-6-(4-(p-tolyl)piperazine-1-carbonyl)quinolin-3-yl)pentanoic acid]"
13,2.1 to 20,"O=C(O)CCCCc1cc2cc(C(=O)N[C@@H]3CCOc4ccccc43)ccc2nc1-c1ccc(F)cc1 [Compound 5AD, (R)-5-(6-(chroman-4-ylcarbamoyl)-2-(4-fluorophenyl)quinolin-3-yl)pentanoic acid]"
14,2.1 to 20,"O=C(O)CCCCc1cc2cc(C(=O)N3CCN(c4ccccc4)CC3)ccc2nc1-c1ccc(F)cc1 [Compound 5AF, 5-(2-(4-fluorophenyl)-6-(4-phenylpiperazine-1-carbonyl)quinolin-3-yl)pentanoic acid]"
15,2.1 to 20,"Cc1cccc(N2CCN(C(=O)c3ccc4nc(-c5ccccc5)c(CCCCC(=O)O)cc4c3)CC2)c1 [Compound 1BC, 5-(2-phenyl-6-(4-(m-tolyl)piperazine-1-carbonyl)quinolin-3-yl)pentanoic acid]"
